According to patent US12492188B2, “1H-benzo[D]imidazole derivatives as TLR9 inhibitors for the treatment of fibrosis” (BRISTOL-MYERS SQUIBB COMPANY, priority 2020, dated 2025):
Read-outs that look alike come from different tables or passages of the source.

What was measured:
Format in all cases: cell-based
human TLR9 = molecular target: T1, human TLR9 (Homo sapiens, UniProt Q9NR96); assay: TLR9 inhibition reporter assay (HEK-Blue cells, secreted embryonic alkaline phosphatase reporter); details: HEK-Blue cells overexpressing human TLR9, stimulated with ODN2006 5 nM
T1 construct: host or cells: HEK-Blue cells (HEK293-derived reporter line)
T1 sequence (Q9NR96 26-1032): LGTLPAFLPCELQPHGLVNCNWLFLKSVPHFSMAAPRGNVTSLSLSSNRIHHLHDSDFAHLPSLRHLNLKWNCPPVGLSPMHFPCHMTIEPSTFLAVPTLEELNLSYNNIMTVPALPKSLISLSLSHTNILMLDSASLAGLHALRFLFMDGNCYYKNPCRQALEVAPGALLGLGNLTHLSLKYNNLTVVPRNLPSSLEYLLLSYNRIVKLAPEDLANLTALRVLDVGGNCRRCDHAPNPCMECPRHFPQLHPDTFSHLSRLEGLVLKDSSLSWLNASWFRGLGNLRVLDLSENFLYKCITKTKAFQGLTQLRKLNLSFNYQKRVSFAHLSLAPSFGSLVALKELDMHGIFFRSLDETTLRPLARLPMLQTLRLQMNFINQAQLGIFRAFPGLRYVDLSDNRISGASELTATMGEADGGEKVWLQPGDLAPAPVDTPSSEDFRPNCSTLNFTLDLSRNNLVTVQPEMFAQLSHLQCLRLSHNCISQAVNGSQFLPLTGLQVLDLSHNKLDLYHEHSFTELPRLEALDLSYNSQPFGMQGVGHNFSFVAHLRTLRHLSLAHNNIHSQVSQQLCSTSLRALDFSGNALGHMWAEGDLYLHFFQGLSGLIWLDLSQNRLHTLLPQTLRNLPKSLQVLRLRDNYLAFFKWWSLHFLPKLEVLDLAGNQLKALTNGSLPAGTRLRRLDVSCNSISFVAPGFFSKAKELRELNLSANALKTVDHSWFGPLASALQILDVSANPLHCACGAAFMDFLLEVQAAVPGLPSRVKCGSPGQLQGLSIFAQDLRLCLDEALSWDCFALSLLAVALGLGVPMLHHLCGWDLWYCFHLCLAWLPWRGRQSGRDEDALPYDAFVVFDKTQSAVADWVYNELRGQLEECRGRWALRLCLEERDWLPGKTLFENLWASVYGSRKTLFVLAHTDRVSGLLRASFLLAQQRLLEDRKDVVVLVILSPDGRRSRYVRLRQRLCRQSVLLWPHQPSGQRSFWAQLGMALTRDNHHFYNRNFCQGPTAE
Method in brief: (§1)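 Read-out is SEAP colour from HEK-Blue Detection medium after 22 h at 37 °C, converted to percent inhibition between agonist-plus-DMSO and reference-inhibitor wells. Receptor-overexpressing HEK-Blue cells received compound over 0.05 nM–50 μM for 30 min before agonist: gardiquimod 7.5 μM for TLR7, R848 15.9 μM for TLR8, ODN2006 5 nM for TLR9.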

human TLR7 = molecular target: T2, human TLR7 (Homo sapiens, UniProt Q9NYK1); assay: TLR7 inhibition reporter assay (HEK-Blue cells, secreted embryonic alkaline phosphatase reporter); details: HEK-Blue cells overexpressing human TLR7, stimulated with gardiquimod 7.5 μM; read-out: TLR 7 IC50
T2 construct: host or cells: HEK-Blue cells (HEK293-derived reporter line)
T2 sequence (Q9NYK1 27-1049): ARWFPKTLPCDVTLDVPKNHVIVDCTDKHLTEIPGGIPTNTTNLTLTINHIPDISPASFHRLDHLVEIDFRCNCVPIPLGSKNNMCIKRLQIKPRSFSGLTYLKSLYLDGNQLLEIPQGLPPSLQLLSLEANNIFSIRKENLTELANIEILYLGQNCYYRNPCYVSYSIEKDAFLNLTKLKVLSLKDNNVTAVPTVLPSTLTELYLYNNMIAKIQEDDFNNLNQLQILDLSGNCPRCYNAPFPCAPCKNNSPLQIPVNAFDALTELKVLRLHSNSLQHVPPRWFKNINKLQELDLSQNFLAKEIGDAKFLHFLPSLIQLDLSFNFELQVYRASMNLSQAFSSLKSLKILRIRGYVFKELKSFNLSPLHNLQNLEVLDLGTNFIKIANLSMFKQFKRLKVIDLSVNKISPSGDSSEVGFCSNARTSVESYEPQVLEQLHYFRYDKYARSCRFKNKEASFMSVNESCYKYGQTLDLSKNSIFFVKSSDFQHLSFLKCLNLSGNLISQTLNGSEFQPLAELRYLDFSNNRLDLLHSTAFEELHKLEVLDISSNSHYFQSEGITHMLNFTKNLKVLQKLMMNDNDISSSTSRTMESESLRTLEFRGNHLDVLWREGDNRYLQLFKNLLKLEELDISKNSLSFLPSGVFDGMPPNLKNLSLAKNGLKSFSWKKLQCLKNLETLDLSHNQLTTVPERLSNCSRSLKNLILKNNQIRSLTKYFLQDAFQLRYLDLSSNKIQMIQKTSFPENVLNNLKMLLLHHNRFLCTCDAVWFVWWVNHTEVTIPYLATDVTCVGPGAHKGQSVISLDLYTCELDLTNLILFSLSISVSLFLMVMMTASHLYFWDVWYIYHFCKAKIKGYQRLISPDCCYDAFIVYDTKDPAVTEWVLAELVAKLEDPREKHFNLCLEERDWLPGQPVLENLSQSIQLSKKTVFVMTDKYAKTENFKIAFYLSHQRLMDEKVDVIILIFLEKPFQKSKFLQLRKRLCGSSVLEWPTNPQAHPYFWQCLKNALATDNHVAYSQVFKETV
Method in brief: as §1

human TLR8 = molecular target: T3, human TLR8 (Homo sapiens, UniProt Q9NR97); assay: TLR8 inhibition reporter assay (HEK-Blue cells, secreted embryonic alkaline phosphatase reporter); details: HEK-Blue cells overexpressing human TLR8, stimulated with R848 15.9 μM; read-out: TLR 8 IC50
T3 construct: host or cells: HEK-Blue cells (HEK293-derived reporter line)
T3 sequence (Q9NR97 27-1041): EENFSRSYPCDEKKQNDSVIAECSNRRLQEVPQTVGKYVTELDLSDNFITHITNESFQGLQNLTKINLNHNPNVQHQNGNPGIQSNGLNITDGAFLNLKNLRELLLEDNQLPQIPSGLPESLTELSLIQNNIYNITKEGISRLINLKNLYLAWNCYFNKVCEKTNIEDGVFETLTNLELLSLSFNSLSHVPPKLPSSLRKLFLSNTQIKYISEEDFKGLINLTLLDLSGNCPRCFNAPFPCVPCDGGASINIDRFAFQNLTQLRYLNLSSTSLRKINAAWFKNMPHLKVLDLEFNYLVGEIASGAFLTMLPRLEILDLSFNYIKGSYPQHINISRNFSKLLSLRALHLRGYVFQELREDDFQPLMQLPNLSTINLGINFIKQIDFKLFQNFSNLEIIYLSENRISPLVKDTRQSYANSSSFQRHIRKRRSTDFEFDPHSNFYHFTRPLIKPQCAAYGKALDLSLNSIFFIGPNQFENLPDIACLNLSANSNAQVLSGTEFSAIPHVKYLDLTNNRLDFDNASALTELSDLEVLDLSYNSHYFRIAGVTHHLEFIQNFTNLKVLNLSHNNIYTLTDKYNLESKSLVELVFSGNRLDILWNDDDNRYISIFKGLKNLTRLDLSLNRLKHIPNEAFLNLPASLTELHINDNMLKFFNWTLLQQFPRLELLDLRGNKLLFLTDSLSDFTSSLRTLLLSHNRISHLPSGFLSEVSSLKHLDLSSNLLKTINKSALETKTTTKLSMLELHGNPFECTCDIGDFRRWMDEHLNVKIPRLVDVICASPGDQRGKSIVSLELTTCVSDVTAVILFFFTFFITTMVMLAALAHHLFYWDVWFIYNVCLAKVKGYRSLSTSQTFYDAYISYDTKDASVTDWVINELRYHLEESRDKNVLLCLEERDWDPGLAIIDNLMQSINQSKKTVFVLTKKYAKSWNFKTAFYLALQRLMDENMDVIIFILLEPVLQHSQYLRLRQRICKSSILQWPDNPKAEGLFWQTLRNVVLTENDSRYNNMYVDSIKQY
Method in brief: as §1

[1] = 22 hour incubation, reporter readout

SMILES	IC50 (human TLR9; [1]) [nM]	IC50 (human TLR9; read-out: TLR 9 IC50) [nM]	IC50 (human TLR7) [nM]	IC50 (human TLR8) [nM]
Cc1cc(-c2cc(F)cc(CN3CCC(N4CCCC4)CC3)c2)cc2c1nc(-c1ccc(S(C)(=O)=O)cc1)n2C [Example 405, 6-(3-fluoro-5-((4-(pyrrolidin-1-yl)piperidin-1-yl)methyl)phenyl)-1,4-dimethyl-2-(4-(methylsulfonyl)phenyl)-1H-benzo[d]imidazole]	21	21	300	900
Cc1cc(-c2cc(F)cc(CN3CCC(N4CCC4)CC3)c2)cc2c1nc(-c1ccc(S(C)(=O)=O)cc1)n2C [Example 406, 6-(3-((4-(azetidin-1-yl)piperidin-1-yl)methyl)-5-fluorophenyl)-1,4-dimethyl-2-(4-(methylsulfonyl)phenyl)-1H-benzo[d]imidazole]	130	133	600	2000
Cc1cc(-c2cccc(CN3CCC(N4CCCC4)CC3)c2)cc2c1nc(-c1ccc(S(C)(=O)=O)cc1)n2C1CC1 [Example 407, 1-cyclopropyl-4-methyl-2-(4-(methylsulfonyl)phenyl)-6-(3-((4-(pyrrolidin-1-yl)piperidin-1-yl)methyl)phenyl)-1H-benzo[d]imidazole]	46	46	800	5000
CS(=O)(=O)c1ccc(-c2nc3c(F)cc(-c4ccc(CN5CCC(N6CCCC6)CC5)cc4)cc3n2C2CC2)cc1 [Example 408, 1-cyclopropyl-4-fluoro-2-(4-(methylsulfonyl)phenyl)-6-(4-((4-(pyrrolidin-1-yl)piperidin-1-yl)methyl)phenyl)-1H-benzo[d]imidazole]	140	136	1600	900
Cn1c(-c2ccc(S(C)(=O)=O)cc2)nc2c(F)cc(-c3ccc(CN4CCC(N5CCCC5)CC4)cc3)cc21 [Example 409, 4-fluoro-1-methyl-2-(4-(methylsulfonyl)phenyl)-6-(4-((4-(pyrrolidin-1-yl)piperidin-1-yl)methyl)phenyl)-1H-benzo[d]imidazole]	5.3	5.3	1500	1000
Cc1cc(-c2ccc(CN3CCN(C(C)C)CC3)cc2)cc2c1nc(-c1ccc(S(C)(=O)=O)cc1)n2C [Example 413, 6-(4-((4-isopropylpiperazin-1-yl)methyl)phenyl)-1,4-dimethyl-2-(4-(methylsulfonyl)phenyl)-1H-benzo[d]imidazole]	1900	1880	> 50000	5400
Cc1ccc(CN2CCC(c3cc(C)c4nc(-c5ccc(S(C)(=O)=O)cc5)n(C)c4c3)CC2)cn1 [Example 419, 1,4-dimethyl-6-(1-((6-methylpyridin-3-yl)methyl)piperidin-4-yl)-2-(4-(methylsulfonyl)phenyl)-1H-benzo[d]imidazole]	2100	2140	2300	8400
CCOP(=O)(OCC)c1ccc(-c2nc3c(C)cc(C4CCN(C5CCN(C(C)C)CC5)CC4)cc3n2C)cc1 [Example 420, diethyl(4-(6-(1′-isopropyl-[1,4′-bipiperidin]-4-yl)-1,4-dimethyl-1H-benzo[d]imidazol-2-yl)phenyl)phosphonate]	140	136	> 50000	42200
CCOP(=O)(OCC)c1ccc(-c2nc3c(C)cc(C4CCN(C5CCN(CC(C)C)CC5)CC4)cc3n2C)cc1 [Example 421, diethyl(4-(6-(1′-isobutyl-[1,4′-bipiperidin]-4-yl)-1,4-dimethyl-1H-benzo[d]imidazol-2-yl)phenyl)phosphonate]	140	139	700	> 50000
CCOP(=O)(OCC)c1ccc(-c2nc3c(C)cc(C4CCN(C5CCN(C6CC6)CC5)CC4)cc3n2C)cc1 [Example 422, diethyl(4-(6-(1′-cyclopropyl-[1,4′-bipiperidin]-4-yl)-1,4-dimethyl-1H-benzo[d]imidazol-2-yl)phenyl)phosphonate]	180	180	4000	27300
